{
  "source": "patent US10738028B2",
  "about": "“Spiro three-membered ring, spiro five-membered ring peptide deformylase inhibitor and use thereof in antibacteria and anti-tumor” (priority 2016, dated 2020)",
  "type_in_all_cases": "cell-based",
  "key": {"[1]": {"test_system": "Enterococcus faecalis (EFA)", "test": "MIC, two-fold agar dilution (CLSI), clinical isolates", "how_it_was_run": "(§1)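 Following the American Clinical and Laboratory Standards Institute procedure, agar two-fold dilution served to determine minimum inhibitory concentrations.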"}, "[2]": {"test_system": "Enterococcus faecium (EFM)", "test": "MIC, two-fold agar dilution (CLSI), clinical isolates", "how_it_was_run": "as §1"}, "[3]": {"test_system": "Escherichia coli (including ESBLs, non-ESBLs)", "test": "MIC, two-fold agar dilution (CLSI), clinical isolates", "how_it_was_run": "as §1"}, "[4]": {"test_system": "Moraxella catarrhalis (BCA)", "test": "MIC, two-fold agar dilution (CLSI), clinical isolates", "how_it_was_run": "as §1"}, "[5]": {"test_system": "Streptococcus pneoumoniae (SPN)", "test": "MIC, two-fold agar dilution (CLSI), clinical isolates", "how_it_was_run": "as §1"}, "[6]": {"test_system": "methicillin-resistant Staphylococcus aureus (MRSA)", "test": "MIC, two-fold agar dilution (CLSI), clinical isolates", "how_it_was_run": "as §1"}, "[7]": {"test_system": "methicillin-resistant Staphylococcus epidermidis (MRSE)", "test": "MIC, two-fold agar dilution (CLSI), clinical isolates", "how_it_was_run": "as §1"}, "[8]": {"test_system": "methicillin-sensitive Staphylococcus aureus (MSSA)", "test": "MIC, two-fold agar dilution (CLSI), clinical isolates", "how_it_was_run": "as §1"}, "[9]": {"test_system": "methicillin-sensitive Staphylococcus epidermidis (MSSE)", "test": "MIC, two-fold agar dilution (CLSI), clinical isolates", "how_it_was_run": "as §1"}, "[10]": {"test_system": "HCT-116 colorectal cancer cell line", "test": "CCK-8 proliferation inhibition", "conditions": "Homo sapiens, HCT-116, 72 h, concentration of 30 μM; 72 hours; CCK-8; read-out: HCT116 inhibition rate/%", "how_it_was_run": "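Proliferation over 72 hours of compound treatment was measured with CCK-8 against a 1‰ DMSO control.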"}},
  "data": [
    {"smiles": "CCCC[C@H](CC(=O)NO)C(=O)N1CC2(CC2)C[C@H]1c1nc2ccccc2[nH]1", "note": "[Example 58, (R)-3-((S)-6-(1H-benzimidazol-2-yl)-5-azaspiro[2.4]heptane-5-formyl)-N-hydroxyheptanamide]", "values": [
      {"measurement": "Anti-bacterial activity (MIC), strain EFA 15-1", "setting": "[1]; clinical isolate EFA 15-1", "value": "> 32", "unit": "µg/mL"},
      {"measurement": "Anti-bacterial activity (MIC), strain EFA 15-2", "setting": "[1]; clinical isolate EFA 15-2", "value": "> 32", "unit": "µg/mL"},
      {"measurement": "Anti-bacterial activity (MIC), strain EFA 15-3", "setting": "[1]; clinical isolate EFA 15-3", "value": "> 32", "unit": "µg/mL"},
      {"measurement": "Anti-bacterial activity (MIC), strain EFA 15-4", "setting": "[1]; clinical isolate EFA 15-4", "value": "> 32", "unit": "µg/mL"},
      {"measurement": "Anti-bacterial activity (MIC), strain EFA 15-5", "setting": "[1]; clinical isolate EFA 15-5", "value": "> 32", "unit": "µg/mL"},
      {"measurement": "Anti-bacterial activity (MIC), strain EFA 15-6", "setting": "[1]; clinical isolate EFA 15-6", "value": "> 32", "unit": "µg/mL"},
      {"measurement": "Anti-bacterial activity (MIC), strain EFA 15-9", "setting": "[1]; clinical isolate EFA 15-9", "value": "> 32", "unit": "µg/mL"},
      {"measurement": "Anti-bacterial activity (MIC), strain EFM 15-1", "setting": "[2]; clinical isolate EFM 15-1", "value": "> 32", "unit": "µg/mL"},
      {"measurement": "Anti-bacterial activity (MIC), strain EFM 15-2", "setting": "[2]; clinical isolate EFM 15-2", "value": "> 32", "unit": "µg/mL"},
      {"measurement": "Anti-bacterial activity (MIC), strain EFM 15-3", "setting": "[2]; clinical isolate EFM 15-3", "value": "> 32", "unit": "µg/mL"},
      {"measurement": "Anti-bacterial activity (MIC), strain EFM 15-4", "setting": "[2]; clinical isolate EFM 15-4", "value": 8, "unit": "µg/mL"},
      {"measurement": "Anti-bacterial activity (MIC), strain EFM 15-5", "setting": "[2]; clinical isolate EFM 15-5", "value": 8, "unit": "µg/mL"},
      {"measurement": "Anti-bacterial activity (MIC), strain EFM 15-6", "setting": "[2]; clinical isolate EFM 15-6", "value": 8, "unit": "µg/mL"},
      {"measurement": "Anti-bacterial activity (MIC), strain ECO+ 15-1", "setting": "[3]; clinical isolate ECO+ 15-1", "value": "> 32", "unit": "µg/mL"},
      {"measurement": "Anti-bacterial activity (MIC), strain ECO+ 15-2", "setting": "[3]; clinical isolate ECO+ 15-2", "value": "> 32", "unit": "µg/mL"},
      {"measurement": "Anti-bacterial activity (MIC), strain ECO+ 15-3", "setting": "[3]; clinical isolate ECO+ 15-3", "value": "> 32", "unit": "µg/mL"},
      {"measurement": "Anti-bacterial activity (MIC), strain ECO+ 15-4", "setting": "[3]; clinical isolate ECO+ 15-4", "value": "> 32", "unit": "µg/mL"},
      {"measurement": "Anti-bacterial activity (MIC), strain ECO− 15-1", "setting": "[3]; clinical isolate ECO− 15-1", "value": "> 32", "unit": "µg/mL"},
      {"measurement": "Anti-bacterial activity (MIC), strain ECO− 15-2", "setting": "[3]; clinical isolate ECO− 15-2", "value": "> 32", "unit": "µg/mL"},
      {"measurement": "Anti-bacterial activity (MIC), strain ECO− 15-3", "setting": "[3]; clinical isolate ECO− 15-3", "value": "> 32", "unit": "µg/mL"},
      {"measurement": "Anti-bacterial activity (MIC), strain ECO− 15-4", "setting": "[3]; clinical isolate ECO− 15-4", "value": "> 32", "unit": "µg/mL"},
      {"measurement": "Anti-bacterial activity (MIC), strain BCA 14-1", "setting": "[4]; clinical isolate BCA 14-1", "value": "> 32", "unit": "µg/mL"},
      {"measurement": "Anti-bacterial activity (MIC), strain BCA 14-4", "setting": "[4]; clinical isolate BCA 14-4", "value": "> 32", "unit": "µg/mL"},
      {"measurement": "Anti-bacterial activity (MIC), strain BCA 14-5", "setting": "[4]; clinical isolate BCA 14-5", "value": 8, "unit": "µg/mL"},
      {"measurement": "Anti-bacterial activity (MIC), strain BCA 14-6", "setting": "[4]; clinical isolate BCA 14-6", "value": "> 32", "unit": "µg/mL"},
      {"measurement": "Anti-bacterial activity (MIC), strain BCA 14-7", "setting": "[4]; clinical isolate BCA 14-7", "value": "> 32", "unit": "µg/mL"},
      {"measurement": "Anti-bacterial activity (MIC), strain BCA 14-8", "setting": "[4]; clinical isolate BCA 14-8", "value": "> 32", "unit": "µg/mL"},
      {"measurement": "Anti-bacterial activity (MIC), strain BCA 14-10", "setting": "[4]; clinical isolate BCA 14-10", "value": "> 32", "unit": "µg/mL"},
      {"measurement": "Anti-bacterial activity (MIC), strain SPN 16-2", "setting": "[5]; clinical isolate SPN 16-2", "value": 8, "unit": "µg/mL"},
      {"measurement": "Anti-bacterial activity (MIC), strain SPN 16-4", "setting": "[5]; clinical isolate SPN 16-4", "value": "> 32", "unit": "µg/mL"},
      {"measurement": "Anti-bacterial activity (MIC), strain MRSA 15-1", "setting": "[6]; clinical isolate MRSA 15-1", "value": "> 32", "unit": "µg/mL"},
      {"measurement": "Anti-bacterial activity (MIC), strain MRSA 15-2", "setting": "[6]; clinical isolate MRSA 15-2", "value": "> 32", "unit": "µg/mL"},
      {"measurement": "Anti-bacterial activity (MIC), strain MRSA 15-3", "setting": "[6]; clinical isolate MRSA 15-3", "value": "> 32", "unit": "µg/mL"},
      {"measurement": "Anti-bacterial activity (MIC), strain MRSA 15-4", "setting": "[6]; clinical isolate MRSA 15-4", "value": "> 32", "unit": "µg/mL"},
      {"measurement": "Anti-bacterial activity (MIC), strain MRSE 15-1", "setting": "[7]; clinical isolate MRSE 15-1", "value": "> 32", "unit": "µg/mL"},
      {"measurement": "Anti-bacterial activity (MIC), strain MRSE 15-2", "setting": "[7]; clinical isolate MRSE 15-2", "value": "> 32", "unit": "µg/mL"},
      {"measurement": "Anti-bacterial activity (MIC), strain MRSE 15-3", "setting": "[7]; clinical isolate MRSE 15-3", "value": "> 32", "unit": "µg/mL"},
      {"measurement": "Anti-bacterial activity (MIC), strain MRSE 15-7", "setting": "[7]; clinical isolate MRSE 15-7", "value": "> 32", "unit": "µg/mL"},
      {"measurement": "Anti-bacterial activity (MIC), strain MSSA 15-3", "setting": "[8]; clinical isolate MSSA 15-3", "value": "> 32", "unit": "µg/mL"},
      {"measurement": "Anti-bacterial activity (MIC), strain MSSA 15-4", "setting": "[8]; clinical isolate MSSA 15-4", "value": "> 32", "unit": "µg/mL"},
      {"measurement": "Anti-bacterial activity (MIC), strain MSSA 15-5", "setting": "[8]; clinical isolate MSSA 15-5", "value": "> 32", "unit": "µg/mL"},
      {"measurement": "Anti-bacterial activity (MIC), strain MSSA 15-6", "setting": "[8]; clinical isolate MSSA 15-6", "value": "> 32", "unit": "µg/mL"},
      {"measurement": "Anti-bacterial activity (MIC), strain MSSE 15-3", "setting": "[9]; clinical isolate MSSE 15-3", "value": "> 32", "unit": "µg/mL"},
      {"measurement": "Anti-bacterial activity (MIC), strain MSSE 15-4", "setting": "[9]; clinical isolate MSSE 15-4", "value": "> 32", "unit": "µg/mL"},
      {"measurement": "Anti-bacterial activity (MIC), strain MSSE 15-5", "setting": "[9]; clinical isolate MSSE 15-5", "value": "> 32", "unit": "µg/mL"},
      {"measurement": "Anti-bacterial activity (MIC), strain MSSE 15-6", "setting": "[9]; clinical isolate MSSE 15-6", "value": "> 32", "unit": "µg/mL"},
      {"measurement": "inhibition at 30 µM", "setting": "[10]", "value": 24, "unit": "%"}
    ]}
  ]
}
